Measured values reported in patent publication US20230107216A1, “PANTETHEINE DERIVATIVES AND USES THEREOF” (Comet Therapeutics, Inc., priority 2018, published 2023).
Like-named read-outs stand apart in the source and are kept apart here.

Assays:
[1] = tested on: primary culture of rat embryo mesencephalic cells (microglia, astrocytes and neurons) exposed to LPS; assay: Neuroprotective effect on damage induced by LPS on culture of mesencephalic neurons (NO, TNF-α, IL-1β, TH positive neurons); type: cell-based; conditions: Rattus norvegicus, Neuron, 120 h, 50 uM, after 5 days of LPS exposure; list at threshold 15%; read-out: % reversion of TH positive neurons
Experimental: Drug preparation. […] The stock solutions will be prepared 1000× the concentration in 100% DMSO. The final concentration of the vehicle (DMSO) is set at 0.1%.
Test animals. Pregnant Wistar rats (Janvier; France) are used for the study. They are group-housed and maintained in a room with controlled temperature (21-22° C.) and a reversed light-dark cycle (12h/12h; lights on: 17:30-05:30; lights off: 05:30-17:30) with food and water available ad libitum.
The protocol is performed in 3 independent cultures. For each culture, each condition is performed in sextuplicate.
Female rat of 15 days gestation is killed by cervical dislocation. Fetuses are removed from the uterus and their brains are harvested and placed in ice-cold medium (Leibovitz's L15 medium, Gibco). Only ventral mesencephalic flexure is used for the cell preparations. The midbrain is dissociated by trypsinization. The reaction is stopped, and the suspension is triturated and centrifuged. The pellet of dissociated cells is resuspended in culture medium consisted of DMEM-F12 (Gibco), containing 10% FBS (ATCC), 10% Horse serum (Gibco) and 2 mM L-glutamine (Gibco). Viable cells are counted and seeded on 96-well plates, precoated with poly-L-lysine. Cells are maintained in a humidified incubator at 37° C. in 5% CO2-95% air atmosphere. Half of the medium is changed on day 2 and day 5.
Treatment. On day 7, culture media are removed and replaced by new medium consisting of DMEM-F12 (Gibco) supplemented with 2% FBS (ATCC), 2% Horse serum (Gibco) and 2 mM L-glutamine (Gibco) and containing vehicle or test substances. After 1-hour exposure, LPS at 10 ng/ml is added and exposure further continued for 24 hours or 5 days period.
Inflammatory response measurement and neuronal death evaluation. NO production is measured in the media 24h and 5 days after LPS exposure using the Griess reagent kit (Molecular Probes). The Griess reagent Assay is a colorimetric reaction assay which measures the conversion of a sulfanilic salt into an azo dye product by nitrite. Visible wavelength absorbance data is collected using a 96-well plate reader at 570 nm (Multiskan EX, Thermo Fisher, France). IL-1β and TNF-α release are measured in the media 24h after LPS exposure using the ELISA development kit (PeproTech). The ELISA plate, previously coated with anti-IL-1β or anti-TNF-αantibody at 1 μg/ml, is incubated 1h with PBS containing 1% of BSA (bovine serum albumin). After washing four times with PBS containing 0.05% of Tween-20, the plate is successively incubated 2h with supernatant, 2h with biotinylated antibody at 0.5 μg/ml in PBS containing 0.1% of BSA and 0.05% of Tween-20, 45 min with Avidin-HRP conjugated at 1/2000 and 30 min with color ABTS substrate (Sigma). Visible wavelength absorbance data is collected using a 96-well plate reader at 405 nm with wavelength correction set at 650 nm (Multiskan EX, Thermo Fisher, France).
Immunodetection of tyrosine hydroxylase positive neurons. On day 12 (5 days after LPS exposure), cultures are fixed 30 min at 4° C. with paraformaldehyde in PBS (4%, Sigma). Then, cells are successively permeabilized with 0.1% Triton X100 for 30 min, saturated with PBS containing 3% of BSA (bovine serum albumin) and are incubated 2h with anti-tyrosine hydroxylase antibody (Sigma, 1:10000; clone TH-2) at 1/10 000 in PBS containing 0.5% of BSA. Cells are washed three times with PBS containing 0.5% of BSA, and they are incubated 1h with goat anti mouse antibody coupled with AF488 (Invitrogen A11001) diluted at 1/1000 in PBS containing 0.5% of BSA. Finally, nuclei are stained with DAPI at 1/1000 in PBS containing 0.5% of BSA. After rinsing with PBS, the plate is visualized and examined with Cell Insight HCS (Thermo Scientific) to determine the number of tyrosine hydroxylase positive cells per well.
Statistical Analysis. The drug-induced effect on NO and cytokines is calculated by setting the response of the LPS-stimulated control as 100%. […]

[2] = tested on: HepG2 cells; assay: Mitochondrial membrane potential (MITO-ID MP detection Kit); type: cell-based; conditions: Homo sapiens, 168 h, 7 days, read-out: % increase in Mitochondrial Membrane Potential
Experimental: HepG2 cells (ATCC, HB-8065) were cultured (5% CO2 at 37° C.) and plated in Poly-D-Lysine 384-Well plate (Corning, 356663) at a density of 160000 cells/mL in 50 μL/well. Culture and assay media consisted of DMEM (Gibco, 11995-065) supplemented with 1% Penicillin-Streptomycin and 10% FBS (Hyclone, SV30087.03).
MITO-ID® MP detection Kit (ENZ-51018) was used and manufacturer instructions followed. Cells were allowed to settle for 30 min at room temperature and further incubated overnight (37° C. and 5% CO2) for adherence. Next day, test compounds (50-10 μM) and vehicle DMSO (0.2%) were added at the recommended volumes to the 384-well plate for 7 days without media change using a Tecan compound dispenser. All the solutions and wash buffers were prepared and dispensed according to manufacturer's volumes for a 384-well plate format.

[3] = tested on: Propionic Acidemia (PA) primary fibroblasts Tsi 6337; assay: Mitochondrial respiration, XFe96 Extracellular Flux Analyzer (OCR/ECAR), PA fibroblasts Tsi 6337; type: cell-based; conditions: Homo sapiens, Fibroblast, read-out: Increase in Maximal Respiratory Capacity AUC
Experimental: The effect of the compounds of the present disclosure on mitochondrial respiration was measured with a XFe96 Extracellular Flux Analyzer (Seahorse Bioscience, Agilent Technologies) and Oxygen consumption Rate (OCR) and Extracellular acidification rate (ECAR) determined.
Cell culture and treatments. Primary adherent fibroblasts were cultured in minimum essential medium (MEM) (Gibco, 25030081) supplemented with 2 mM L-Glutamine (Gibco, 25030081), 15% fetal bovine serum (FBS) (Gibco, 26400044) and 1% penicillin/streptomycin (Gibco, 5140122) at 37° C. and 5% CO2. Cells were collected for either passaging or experiment at ˜70-80% confluence. Cells were obtained by trypsinization and seeded at 20000 cells/well in cell culture microplates (Seahorse Bioscience, 101085-004) and allowed to adhere for 16 hours in culture media.
By profiling different primary cells and/or optimizing their culture media or environmental components one can select cell lines and/or conditions that are appropriate for the biological or disease model. In the present example, 24 hours prior to OCR and ECAR profiling, media was changed to Dulbecco's Modified Eagle Medium (DMEM, Agilent Seahorse 103575-100) with the appropriate supplements for the different primary cells (10 mM glucose, 2 mM L-glutamine, 1 mM pyruvate, 10% FBS; 1 mM glucose, 2 mM L-glutamine, 1 mM pyruvate, 10% FBS; 10 mM glucose, 10% FBS; 5 mM glucose 10% FBS; 1 mM glucose 10% FBS). Cells used in this example were: Propionic Acidemia (PA) (GM00371, GM03590 Coriell Institute for Medical Research, Tsi 6337, Tsi 4626, Tsi 3618 Trans-Hit Bio), Methylmalonic Acidemia (MMA) (GM01673, Coriell Institute for Medical Research, Tsi 5224 Trans-Hit Bio), Branched chain ketoacid dehydrogenase kinase (BCKDK) (GM00612, GM00649 Coriell Institute for Medical Research), Subnormal activation of pyruvate dehydrogenase complex (PDH) (GM01503 Coriell Institute for Medical Research), Very long-chain acyl-CoA dehydrogenase (VLCAD) (GM17475), Leigh Syndrome (LS) (GM03672, GM13411 Coriell Institute for Medical Research), Pyruvate Carboxylase Deficiency (PC) (GM00444 Coriell Institute for Medical Research), Glutaric Acidemia-I (GA) (GM10653), Friedreich's Ataxia (FXN) (GM04078 Coriell Institute for Medical Research, Huntington's disease (HD) (GM21756 Coriell Institute for Medical Research), Ornithine Transcarbamylase Deficiency (OTC) (GM12756 Coriell Institute for Medical Research), Kearns-Sayre Syndrome (KSS) (GM06225 Coriell Institute for Medical Research).
One hour before the assay, the cells were washed with freshly prepared unbuffered serum free-Seahorse XF Assay medium (Seahorse Bioscience, North America, USA, 103575-100) with the same supplements as for the previous 24 hour incubation.
After baseline measurements of OCR, cells were challenged with compounds of the present disclosure at different concentrations (10 to 50 μM) or vehicle (DMSO, 0.1%) and a post-compound baseline was recorded. OCR was measured after sequentially adding to each well 1 μg/ml oligomycin (inhibitor of ATP synthase Sigma-Aldrich, 753531), then maximal OCR was determined with carbonyl cyanide 4-(trifluoromethoxy) phenylhydrazone (FCCP, Sigma-Aldrich, C2920), (uncoupler of oxidative phosphorylation) and 0.5 μM of rotenone (Sigma-Aldrich, R8875) plus antimycin A (Sigma-Aldrich, A8674) (inhibitors of mitochondrial complex I and III) for determination of rotenone-antimycin insensitive respiration together with Hoechst for nuclear staining in situ when normalized to cell counts. After the analysis and nuclear staining, the XFp microplate was transferred to the Cytation 5, and the nuclear images were captured, the individual nuclei were identified and counted by BioTek Gen5 software. Data were expressed as pmol of O2 per minute and normalized by nuclear staining and baselined to pre-compound addition.
Assay conditions were as stated below.
Assay specifics on assay conditions are indicated below when readouts were normalized to cell counts. […]

[4] = tested on: monocyte-derived M1 macrophages; assay: M1 differentiation assay (macrophage TNFα, IL6, IL10 ELISA, FACS); type: cell-based, human; conditions: Homo sapiens, Macrophage
In short: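 CD14+ human blood monocytes (100,000) differentiated 6 days with 10 ng/ml GM-CSF plus compound at 10 or 50 μM, refreshed days 2 and 4. Matured 24 h with GM-CSF, IFNγ, LPS plus compound. Supernatant TNFα, IL6, IL10 by ELISA; FACS M1 phenotype CD86+CD68+CD163−.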

[5] = PA Tsi 6337, assay condition A (10 mM glucose, 2 mM L-glutamine, 1 mM pyruvate, 10% FBS)

SMILES	inhibition at 50 µM [1] [%]	activation at 50 µM ([2]; 50 uM) [%]	activation at 10 µM [3, 5] [%]	activation at 10 µM [2] [%]	inhibition at 10 µM ([4]; 10 uM, read-out: % decrease in Macrophage IL-6 Secretion) [%]	activation at 50 µM ([4]; 50 uM, read-out: % Increase in IL-10 Secretion) [%]	activation at 10 µM ([3]; PA Tsi 6337, assay condition D (1 mM glucose, 10% FBS)) [%]
CC(C)(CO)[C@@H](O)C(=O)NCCC(=O)NCCS [Preparatory Ex 5]	≥ 15						
C[C@@H](CC(=O)SCCNC(=O)CCNC(=O)[C@H](O)C(C)(C)CO)OC(=O)CCC(=O)O [Compound 1247, 4-{[(2S)-4-[(2-{3-[(2R)-2,4-dihydroxy-3,3-dimethylbutanamido]propanamido}ethyl)sulfanyl]-4-oxobutan-2-yl]oxy}-4-oxobutanoic acid]		> 20	≥ 10				
CC(C)(CO)[C@@H](O)C(=O)NCCC(=O)NCCSC(=O)C1CCC(=O)O1 (stereo partly drawn) [Compound 1229, S-2-{3-[(R)-2,4-dihydroxy-3,3-dimethylbutyrylamino]propionylamino} ethyl 5-oxo-3,4-dihydro-2H-furan-2-carbothioate]			≥ 10	> 20	≥ 30	≥ 30	
COC(=O)CCC(=O)OCC(C)(C)[C@@H](O)C(=O)NCCC(=O)NCCSC(=O)CCC(=O)OC [Compound 1230]			≥ 10	> 30			≥ 10
